Experimental data published in patent publication US6806230B1, “Pyrimidine derivatives and herbicides containing them” (Kumiai Chemical Industry Co., Ltd., priority 1999, dated 2004).

Assays:
Format in all cases: in vivo
barnyard grass (Ec) = assay: Test Example 2: herbicidal effects by upland soil treatment; parameters: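 0-5 growth inhibition grade; 5 = over 90%; 4 = 70-90%; 3 = 50-70%; 2 = 30-50%; 1 = 10-30%; 0 = under 10%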; conditions: dose 100 g active ingredient per 10 ares, examined on the 21st day after treatment
Description: In a 80 cm^2 plastic pot, upland soil was filled, and seeds of barnyard grass (Ec) and green foxtail (Se) were sown and covered with soil. A wettable powder prepared in accordance with Formulation Example 1 was diluted with water and uniformly applied to the soil surface by means of a small size spray at a rate of 100 l per 10 ares, so that the dose of the active ingredient would be 100 g per 10 ares. Thereafter, cultivation was carried out in a green house, and on the 21st day after the treatment, the herbicidal effects were examined in accordance with the standards as identified in Table 44.

barnyard grass (Eo) [1] = assay: Test Example 1: herbicidal effects by flooded paddy field treatment; parameters: herbicidal effects, Eo (barnyard grass):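 0-5 growth inhibition grade; 5 = over 90%; 4 = 70-90%; 3 = 50-70%; 2 = 30-50%; 1 = 10-30%; 0 = under 10%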; conditions: for herbicidal effects, Eo (barnyard grass): dose 100 g active ingredient per 10 ares, examined on the 21st day after treatment, standards of Table 44; for Herbicidal effect index, Eo: dose 100 gai/10a, examined on 21st day after treatment, index 0-5 per Table 44;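 as to Herbicidal effect index, Eo: 0-5 growth inhibition grade; 5 = over 90%; 4 = 70-90%; 3 = 50-70%; 2 = 30-50%; 1 = 10-30%; 0 = under 10%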
Description: (§1) In a 100 cm^2 plastic pot, paddy field soil was filled and paddled. Then, seeds of barnyard grass (Eo) and monochoria (Mo) were sown, and water was introduced to a depth of 3 cm. Next day, a wettable powder prepared in accordance with Formulation Example 1 was diluted with water and dropwise applied to the water surface. The dose was 100 g of the active ingredient per 10 ares. Thereafter, cultivation was carried out in a green house, and on the 21st day after the treatment, the herbicidal effects were examined in accordance with the standards as identified in Table 44.

monochoria (Mo) [2] = assay: as above; parameters: herbicidal effects, Mo (monochoria):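 0-5 growth inhibition grade; 5 = over 90%; 4 = 70-90%; 3 = 50-70%; 2 = 30-50%; 1 = 10-30%; 0 = under 10%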; conditions: for herbicidal effects, Mo (monochoria): dose 100 g active ingredient per 10 ares, examined on the 21st day after treatment, standards of Table 44; for Herbicidal effect index, Mo: dose 100 gai/10a, examined on 21st day after treatment, index 0-5 per Table 44
Description: as §1

rice (Or) = assay: Test Example 4: selectivity for a crop plant by flooded paddy field treatment; parameters: scale not given here; conditions: rice transplanted at second leaf stage; for Or (herbicidal effect index on crop): dose 25 gai/10a, 21st day after treatment, index per Table 44; for Or (effect on crop plant rice, index): dose 25 g active ingredient per 10 ares, examined on the 21st day after treatment
Description: as §1, with “pot, a” for “pot,”, “sown, and rice (Or) of second leaf stage was transplanted,” for “sown,”, “was 25” for “was 100”, “standards of” for “standards as identified in”

monochoria (Mo) [3] = assay: as above; parameters: scale not given here; conditions: for Mo (herbicidal effect index): monochoria, dose 25 gai/10a, 21st day after treatment, index per Table 44; for Mo (herbicidal effects, index): dose 25 g active ingredient per 10 ares, examined on the 21st day after treatment
Description: as §1, with “pot, a” for “pot,”, “sown, and rice (Or) of second leaf stage was transplanted,” for “sown,”, “was 25” for “was 100”, “standards of” for “standards as identified in”

barnyard grass (Eo) [4] = assay: as above; parameters: scale not given here; conditions: for Eo (herbicidal effect index): barnyard grass, dose 25 gai/10a, 21st day after treatment, index per Table 44; for Eo (herbicidal effects, index): dose 25 g active ingredient per 10 ares, examined on the 21st day after treatment
Description: as §1, with “pot, a” for “pot,”, “sown, and rice (Or) of second leaf stage was transplanted,” for “sown,”, “was 25” for “was 100”, “standards of” for “standards as identified in”
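For Herbicidal effect index, Mo in this document: 0-5 growth inhibition grade; 5 = over 90%; 4 = 70-90%; 3 = 50-70%; 2 = 30-50%; 1 = 10-30%; 0 = under 10%.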

Or (effect on crop plant rice, index) (rice (Or))	Structure (SMILES)	Ec (herbicidal effects, index) (barnyard grass (Ec))	herbicidal effects, Eo (barnyard grass) (barnyard grass (Eo) [1])	herbicidal effects, Mo (monochoria) (monochoria (Mo) [2])	Or (herbicidal effect index on crop) (rice (Or))	Mo (herbicidal effect index) (monochoria (Mo) [3])	Eo (herbicidal effect index) (barnyard grass (Eo) [4])	Herbicidal effect index, Eo (barnyard grass (Eo) [1])	Herbicidal effect index, Mo (monochoria (Mo) [2])	Mo (herbicidal effects, index) (monochoria (Mo) [3])	Eo (herbicidal effects, index) (barnyard grass (Eo) [4])
–	CN(C(=O)Cc1ccc(F)cc1)C(c1cccs1)c1cncnc1C(F)(F)F (racemic) [1-234]	5	5	5	1	5	5	–	–	–	–
–	CN(C(=O)Cc1ccc(C(F)(F)F)cc1)C(c1ccccc1)c1cncnc1C(F)(F)F (racemic) [1-306]	5	5	5	1	5	5	–	–	–	–
–	CCN(C(=O)Cc1ccc(Cl)cc1F)C(c1cncnc1C(F)(F)F)C(C)C (racemic) [1-321]	5	5	5	1	5	5	–	–	–	–
–	Cc1ccc(CC(=O)N(C)C(c2cncnc2-c2ccccc2)C(C)C)cc1 (racemic) [1-325]	–	5	5	1	5	5	–	–	–	–
–	CC(C)C(c1cncnc1C(F)(F)F)N(C)C(=O)C(C)(C)c1ccc(Cl)cc1 (racemic) [1-329]	5	5	5	1	5	5	–	–	–	–
–	CC(C)C(c1cncnc1C(F)(F)F)N(C)C(=O)Cc1cc(F)c(F)c(F)c1 (racemic) [1-418]	5	5	5	1	5	5	–	–	–	–
–	CCN(C(=O)N(C)C(c1cncnc1C(F)(F)F)C(C)C)c1ccccc1 (racemic) [1-425]	5	5	5	1	5	5	–	–	–	–
–	CCC(c1cncnc1C(C)C)N(C)C(=O)Cc1ccc(C)cc1 (racemic) [1-439]	5	5	5	1	5	5	–	–	–	–
–	COc1ccc(C(c2cncnc2C(F)(F)F)N(C)C(=O)Cc2ccc(C)cc2)cc1 (racemic) [1-487]	–	5	5	1	5	5	–	–	–	–
–	COc1ccccc1C(c1cncnc1C(F)(F)F)N(C)C(=O)Cc1ccc(C)cc1 (racemic) [1-491]	–	5	5	0	5	5	–	–	–	–
–	C#CCN(C(=O)Cc1ccc(Cl)cc1F)C(c1cncnc1C(F)(F)F)C(C)C (racemic) [1-615]	–	5	5	1	5	5	–	–	–	–
–	CN(C(=O)Cc1ccc(Cl)s1)C(c1cncnc1C(F)(F)F)C(C)(C)C (racemic) [2-42]	–	5	5	0	5	5	–	–	–	–
–	CC(C)C(c1cncnc1C(F)(F)F)N(C)C(=O)COc1nc2ccccc2s1 (racemic) [2-48]	–	5	5	1	5	5	–	–	–	–
1	O=C(Cc1ccc(C(F)(F)F)cc1)NC(c1cncnc1C(F)(F)Cl)C1CC1 (racemic) [Compound 1-4]	–	–	–	–	–	–	5	5	4	5
1	COc1ccc(SC(=O)N(C)C(c2cncnc2C(F)(F)Cl)C(C)C)cc1 (racemic) [Compound 1-18]	–	–	–	–	–	–	5	5	4	5
0	CC(C)C(c1cncnc1C(F)(F)F)N(C)C(=O)Cc1cccc(C(F)(F)F)c1 (racemic) [Compound 1-39]	–	–	–	–	–	–	5	5	5	5
1	CC(C)C(c1cncnc1C(F)(F)F)N(C)C(=O)Cc1ccc(C(C)(C)C)cc1 (racemic) [Compound 1-43]	–	–	–	–	–	–	5	5	5	5
0	CSc1ccc(CC(=O)N(C)C(c2cncnc2C(F)(F)F)C(C)C)cc1 (racemic) [Compound 1-44]	–	–	–	–	–	–	5	5	5	5
0	Cc1ccc(CC(=O)N(C2CC2)C(c2cncnc2C(F)(F)F)C(C)C)cc1 (racemic) [Compound 1-82]	–	–	–	–	–	–	5	5	5	5
0	CC(C)C(c1cncnc1C(F)(F)F)N(C)C(=O)C=Cc1ccc(Cl)cc1 (racemic) [Compound 1-86]	–	–	–	–	–	–	5	5	5	5
0	Cc1ccc(CC(=O)N(C)C(c2cncnc2C(F)(F)Cl)C2CC2)cc1 (racemic) [Compound 1-93]	–	–	–	–	–	–	5	5	5	5
–	CC(C)C(c1cncnc1C(F)(F)F)N(C)C(=O)Cc1ccc(S(C)(=O)=O)cc1 (racemic) [Compound 1-104]	–	–	–	1	5	5	5	5	–	–
–	CC(C)C(c1cncnc1C(F)(F)F)N(C)C(=O)COc1ccccc1Cl (racemic) [Compound 1-132]	–	5	5	0	5	5	–	–	–	–
–	COC(=O)c1ncncc1C(C(C)C)N(C)C(=O)C(C)c1ccc(Cl)cc1 (single isomer, unassigned) [1-593]	–	5	5	0	4	5	–	–	–	–
